Like-named read-outs stand apart in the source and are kept apart here.
Tested on: test plant species
Experiment: Post-emergent herbicidal activity test (greenhouse, foliar spray, visual growth reduction)
Assay type: in vivo
Conditions: post-emergence, 336 h, 140 g ai/ha
Procedure, shortened: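 Visual scoring 14 d after treatment (0 = no injury, 100 = complete control) against nontreated and solvent-blank plants gave percent growth reduction. Foliar application used a track sprayer delivering 187 L/ha to seedlings at first or second true leaf stage, grown at 23–29 °C day, ~15 h photoperiod.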

[1] = ALOMY: blackgrass (Alopecurus myosuroides), 14 days after application, read-out: Visual Growth Reduction (%) 14 Days After Application, ALOMY
[2] = AMARE: redroot pigweed (Amaranthus retroflexus), 14 days after application, read-out: Visual Growth Reduction (%) 14 Days After Application, AMARE
[3] = AVEFA: wild oat (Avena fatua), 14 days after application, read-out: Visual Growth Reduction (%) 14 Days After Application, AVEFA
[4] = CHEAL: lambsquarters (Chenopodium album), 14 days after application, read-out: Visual Growth Reduction (%) 14 Days After Application, CHEAL
[5] = CIRAR: canada thistle (Cirsium arvense), 14 days after application, read-out: Visual Growth Reduction (%) 14 Days After Application, CIRAR
[6] = CYPES: yellow nutsedge (Cyperus esculentus), 14 days after application, read-out: Visual Growth Reduction (%) 14 Days After Application, CYPES
[7] = DIGSA: crabgrass (Digitaria sanguinalis), 14 days after application, read-out: Visual Growth Reduction (%) 14 Days After Application, DIGSA
[8] = ECHCG: barnyardgrass (Echinochloa crus-galli), 14 days after application, read-out: Visual Growth Reduction (%) 14 Days After Application, ECHCG
[9] = IPOHE: ivy-leaf morning glory (Ipomoea hederacea), 14 days after application, read-out: Visual Growth Reduction (%) 14 Days After Application, IPOHE
[10] = KCHSC: kochia (Bassia scoparia), 14 days after application, read-out: Visual Growth Reduction (%) 14 Days After Application, KCHSC
[11] = ORYSA: rice (Oryza sativa), 14 days after application, read-out: Visual Growth Reduction (%) 14 Days After Application, ORYSA
[12] = SETFA: giant foxtail (Setaria faberi), 14 days after application, read-out: Visual Growth Reduction (%) 14 Days After Application, SETFA
[13] = SORVU: grain sorghum (Sorghum vulgare), 14 days after application, read-out: Visual Growth Reduction (%) 14 Days After Application, SORVU
[14] = STEME: common chickweed (Stellaria media), 14 days after application, read-out: Visual Growth Reduction (%) 14 Days After Application, STEME
[15] = TRZAS: wheat, spring (Triticum aestivum), 14 days after application, read-out: Visual Growth Reduction (%) 14 Days After Application, TRZAS
[16] = blackgrass (Alopecurus myosuroides), 14 Days After Application, read-out: Visual Growth Reduction (%) ALOMY
[17] = canada thistle (Cirsium arvense), 14 Days After Application, read-out: Visual Growth Reduction (%) CIRAR
[18] = crabgrass (Digitaria sanguinalis), 14 Days After Application, read-out: Visual Growth Reduction (%) DIGSA
[19] = lambsquarters (Chenopodium album), 14 Days After Application, read-out: Visual Growth Reduction (%) CHEAL
[20] = redroot pigweed (Amaranthus retroflexus), 14 Days After Application, read-out: Visual Growth Reduction (%) AMARE
[21] = wild oat (Avena fatua), 14 Days After Application, read-out: Visual Growth Reduction (%) AVEFA
[22] = yellow nutsedge (Cyperus esculentus), 14 Days After Application, read-out: Visual Growth Reduction (%) CYPES

SMILES	pest or weed control at 140 g/ha [8]	pest or weed control at 140 g/ha [9]	pest or weed control at 140 g/ha [10]	pest or weed control at 140 g/ha [11]	pest or weed control at 140 g/ha [12]	pest or weed control at 140 g/ha [13]	pest or weed control at 140 g/ha [14]	pest or weed control at 140 g/ha [15]	pest or weed control at 140 g/ha [16]	pest or weed control at 140 g/ha [17]	pest or weed control at 140 g/ha [18]	pest or weed control at 140 g/ha [19]	pest or weed control at 140 g/ha [20]	pest or weed control at 140 g/ha [21]	pest or weed control at 140 g/ha [22]	other results
COC(=O)c1nc(-c2ccc(C(F)(F)C#N)cc2Cl)ccc1Cl [F178, Methyl 3-chloro-6-(2-chloro-4-(cyanodifluoromethyl)phenyl)picolinate]	0 to 29%	0 to 29%	0 to 29%	0 to 29%	0 to 29%	0 to 29%	0 to 29%	0 to 29%								pest or weed control at 140 g/ha [1]: 0 to 29%; pest or weed control at 140 g/ha [2]: 0 to 29%; pest or weed control at 140 g/ha [3]: 0 to 29%; pest or weed control at 140 g/ha [4]: 0 to 29%; pest or weed control at 140 g/ha [5]: 0 to 29%; pest or weed control at 140 g/ha [6]: 0 to 29%; pest or weed control at 140 g/ha [7]: 0 to 29%
COC(=O)c1nc(-c2ccc(C)cc2)c(F)cc1Cl [F249, Methyl 3-chloro-5-fluoro-6-(p-tolyl)picolinate]	0 to 29%	0 to 29%	0 to 29%	0 to 29%	0 to 29%	0 to 29%	0 to 29%	0 to 29%	0 to 29%	0 to 29%	0 to 29%	60 to 74%	0 to 29%	0 to 29%	0 to 29%	
COC(=O)c1nc(-c2cc3c(cc2OC)OC(F)(F)O3)ccc1Cl [F353, Methyl 3-chloro-6-(2,2-difluoro-6-methoxybenzo[d][1,3]dioxol-5-yl)picolinate]	0 to 29%	95 to 100%	0 to 29%	0 to 29%	0 to 29%	45 to 59%	0 to 29%	0 to 29%	0 to 29%	0 to 29%	0 to 29%	45 to 59%	0 to 29%	0 to 29%	0 to 29%	
COC(=O)c1nc(-c2ccc(C(F)(F)F)cc2F)c(F)cc1F [F375, Methyl 3,5-difluoro-6-(2-fluoro-4-(trifluoromethyl)phenyl)picolinate]	85 to 94%	95 to 100%	60 to 74%	0 to 29%	85 to 94%	85 to 94%	0 to 29%	75 to 84%	45 to 59%	85 to 94%	85 to 94%	85 to 94%	95 to 100%	60 to 74%	0 to 29%	
COC(=O)c1nc(-c2ccc(Cl)cc2)cc(Cl)c1Cl [F80, Methyl 3,4-dichloro-6-(4-chlorophenyl) picolinate]	0 to 29%	45 to 59%		0 to 29%	0 to 29%	0 to 29%	0 to 29%	0 to 29%								pest or weed control at 140 g/ha [1]: 0 to 29%; pest or weed control at 140 g/ha [2]: 60 to 74%; pest or weed control at 140 g/ha [3]: 0 to 29%; pest or weed control at 140 g/ha [4]: 30 to 44%; pest or weed control at 140 g/ha [5]: 0 to 29%; pest or weed control at 140 g/ha [6]: 0 to 29%; pest or weed control at 140 g/ha [7]: 0 to 29%
O=C(O)c1nc(-c2ccc(C(F)(F)F)cc2Cl)c(F)cc1Cl [F352, 3-chloro-6-(2-chloro-4-(trifluoromethyl)phenyl)-5-fluoropicolinic acid]	95 to 100%	95 to 100%	85 to 94%	85 to 94%	95 to 100%	95 to 100%	60 to 74%	95 to 100%	75 to 84%	95 to 100%	95 to 100%	95 to 100%	95 to 100%	85 to 94%	0 to 29%	
CCC(F)c1c(Cl)ccc(-c2ccc(Cl)c(C(=O)OC)n2)c1F (centres unmarked) [F285, Methyl 3-chloro-6-(4-chloro-2-fluoro-3-(1-fluoropropyl)phenyl) picolinate]	0 to 29%	0 to 29%	0 to 29%	0 to 29%	0 to 29%	0 to 29%	0 to 29%	0 to 29%	0 to 29%	30 to 44%	0 to 29%	0 to 29%	0 to 29%	0 to 29%	0 to 29%	
COC(=O)c1nc(-c2ccc(C3(C#N)CC3)cc2Cl)c(F)cc1Cl [F237, Methyl 3-chloro-6-(2-chloro-4-(1-cyanocyclopropyl)phenyl)-5-fluoropicolinate]	30 to 44%	95 to 100%	85 to 94%	0 to 29%	75 to 84%	85 to 94%	30 to 44%	45 to 59%	0 to 29%	95 to 100%	85 to 94%	85 to 94%	95 to 100%	45 to 59%	45 to 59%	
COC(=O)c1nc(-c2ccc3ccsc3c2F)c(F)cc1Cl [F266, Methyl 3-chloro-5-fluoro-6-(7-fluorobenzo[b]thiophen-6-yl)picolinate]	0 to 29%	0 to 29%	0 to 29%	0 to 29%	0 to 29%	0 to 29%	0 to 29%	0 to 29%	0 to 29%	0 to 29%	0 to 29%	0 to 29%	0 to 29%	0 to 29%	0 to 29%	
COC(=O)c1nc(-c2cccc3c2OC(F)(F)O3)ccc1Cl [F242, Methyl 3-chloro-6-(2,2-difluorobenzo[d][1,3]dioxol-4-yl)picolinate]	0 to 29%	0 to 29%	0 to 29%	0 to 29%	0 to 29%	75 to 84%	0 to 29%	0 to 29%	0 to 29%	0 to 29%	0 to 29%	60 to 74%	0 to 29%	0 to 29%	0 to 29%	

Reference: patent US20230017045A1, “PYRIDINE AND PYRIMIDINE CARBOXYLATE HERBICIDES AND METHODS OF USE THEREOF” (Dow AgroSciences LLC, priority 2017, published 2023)
